According to patent publication EP1988080A1, “Insecticidal substituted 2-aminoindanes” (Bayer CropScience AG, priority 2007, dated 2008):
Blank lines part the entries; values can stand above or below the molecule they belong to.

Key:
[1] = logP determination (PhysData, logP^1); settings: for logP^1: stated in preparation examples; for PhysData (logP (HCOOH)): HPLC gradient method, acetonitrile/0.1% HCOOH, EEC-Directive 79/831, Annex V.A8
Myzus persicae [2] = test: Myzus persicae-test (Spray application); type: in vivo; settings: application rate of 500 g/ha; spray on Chinese cabbage leaf-disks, all instars
Description: Myzus persicae-test (Spray application)
(§1) To produce a suitable preparation of active compound, 1 part by weight of active compound is mixed with the stated amount of solvent and emulsifier, and the concentrate is diluted with emulsifier-containing water to the desired concentration.
Chinese cabbage (Brassica pekinensis) leaf-disks infected with all instars of the green peach aphid (Myzus persicae), are sprayed with a preparation of the active ingredient at the desired concentration.
(§2) After the specified period of time, mortality in % is determined. 100 % means that all aphids have been killed; o % means that none of the […] have been killed.

Tetranychus urticae = test: Tetranychus-test, OP-resistant (spray application); type: in vivo; settings: spray on French bean
Description: Tetranychus-test, OP-resistant (spray application)
as §1
French bean (Phaseolus vulgaris) which are heavily infested with all stages of the two spotted spidermite (Tetranychus urticae), are sprayed with a preparation of the active ingredient at the desired concentration.
(§3) After the specified period of time, mortality in % is determined. 100 % means that all spider mites have been killed; o % means that none of the […] have been killed.

Myzus persicae [3] = test: Myzus-test (oral); type: in vivo; settings: oral (suction)
Description: as §1
Hollow-ware are located with all instars of the green peach aphid (Myzus persicae). The treatement is carried out by suction of the preparation of active compound of the desired concentration.
as §2

Boophilus microplus = test: Boophilus microplus-test (injection); type: in vivo; settings: application rate of 20 µg/animal; injection in the abdomen
Description: Boophilus microplus-test (injektion)
as §1
The solution of the active compound is injected in the abdomen (Boophilus microplus); the animals are transferred into a cup and stayed in a rooming with an air condition.
After the specified period of time, the efficiany mortality in % is determined. 100 % means that no tick has lay fertile eggs.

Phaedon cochleariae = test: Phaedon-test (spray application); type: in vivo; settings: application rate of 500 g/ha; spray on Chinese cabbage leaf-disks, larvae
Description: Phaedon-test (spray application)
as §1
Chinese cabage (Brassica pekinesis) leafs-disks are treated by being sprayed with the preparation of the active compound of the desired concentration nd are, after drying, infested with mustard beetle larvae (Phaedon cochleariae).
as §3

[4] = Table I-1, cells marked (A) are 1H-NMR, not logP

SMILES: c1ccc2c(c1)CC(N=C1NCCO1)C2 [1-1, 2-[2-(2,3-dihydro-1H-inden)-amino]-4,5-dihydrooxazole]
PhysData (logP^1) [1, 4]: 0.81
activity (mortality in %) (Myzus persicae [2]): ≥ 80%
activity (mortality in %) (Tetranychus urticae; application rate of 100 g/ha): ≥ 80%
activity (mortality in %) (Myzus persicae [3]; application rate of 20 ppm): ≥ 80%

SMILES: CNC(=S)N1CCOC1=NC1Cc2ccccc2C1 [1-2]
PhysData (logP^1) [1, 4]: 2.36
logP^1 [1]: 2.36
activity (mortality in %) (Myzus persicae [2]): ≥ 80%
activity (mortality in %) (Myzus persicae [3]; application rate of 20 ppm): ≥ 80%

SMILES: CCNC(=S)N1CCOC1=NC1Cc2ccccc2C1 [1-5]
PhysData (logP^1) [1, 4]: 3.46
activity (mortality in %) (Myzus persicae [2]): ≥ 80%

SMILES: FC(F)(F)CNC(=S)N1CCOC1=NC1Cc2ccccc2C1 [1-6]
PhysData (logP^1) [1, 4]: 4.28
activity (mortality in %) (Myzus persicae [2]): ≥ 80%

SMILES: COCCNC(=S)N1CCOC1=NC1Cc2ccccc2C1 [1-7]
chromatographic logP (physchem): 3.25
activity (mortality in %) (Myzus persicae [2]): ≥ 80%
efficiency (100 % means that no tick has lay fertile eggs) (Boophilus microplus): ≥ 80%
activity (mortality in %) (Tetranychus urticae; application rate of 500 g/ha): ≥ 80%

SMILES: COC(=O)CNC(=S)N1CCOC1=NC1Cc2ccccc2C1 [1-8]
PhysData (logP^1) [1, 4]: 3.20
activity (mortality in %) (Myzus persicae [3]; application rate of 20 ppm): ≥ 80%

SMILES: CC(=O)NC(=S)N1CCOC1=NC1Cc2ccccc2C1 [1-10]
PhysData (logP^1) [1, 4]: 2.53

SMILES: O=C(NC(=S)N1CCOC1=NC1Cc2ccccc2C1)c1ccccc1 [1-11]
PhysData (logP^1) [1, 4]: 3.11

SMILES: COC(CNC(=S)N1CCOC1=NC1Cc2ccccc2C1)OC [1-12]
activity (mortality in %) (Phaedon cochleariae): ≥ 80%
chromatographic logP (physchem): 3.6
activity (mortality in %) (Myzus persicae [2]): ≥ 80%

SMILES: CCCC(C)NC(=S)N1CCOC1=NC1Cc2ccccc2C1 (centres unmarked) [1-13]
activity (mortality in %) (Phaedon cochleariae): ≥ 80%
chromatographic logP (physchem): 5
activity (mortality in %) (Myzus persicae [2]): ≥ 80%

SMILES: CCC(CC)NC(=S)N1CCOC1=NC1Cc2ccccc2C1 [1-14]
PhysData (logP^1) [1, 4]: 4.90
activity (mortality in %) (Myzus persicae [2]): ≥ 80%

SMILES: S=C(NCC1CC1)N1CCOC1=NC1Cc2ccccc2C1 [1-16]
PhysData (logP^1) [1, 4]: 3.24
activity (mortality in %) (Myzus persicae [2]): ≥ 80%

SMILES: C=CCNC(=S)N1CCOC1=NC1Cc2ccccc2C1 [1-17]
PhysData (logP^1) [1, 4]: 3.75
activity (mortality in %) (Myzus persicae [2]): ≥ 80%

SMILES: CCCNC(=S)N1CCOC1=NC1Cc2ccccc2C1 [1-18]
PhysData (logP^1) [1, 4]: 3.94
activity (mortality in %) (Myzus persicae [2]): ≥ 80%

SMILES: CCCCNC(=S)N1CCOC1=NC1Cc2ccccc2C1 [1-19]
PhysData (logP^1) [1, 4]: 4.46
activity (mortality in %) (Myzus persicae [2]): ≥ 80%

SMILES: CC(NC(=S)N1CCOC1=NC1Cc2ccccc2C1)C(F)(F)F (centres unmarked) [1-20]
PhysData (logP^1) [1, 4]: 4.62
activity (mortality in %) (Myzus persicae [2]): ≥ 80%

SMILES: CC(C)CNC(=S)N1CCOC1=NC1Cc2ccccc2C1 [1-21]
PhysData (logP^1) [1, 4]: 4.51
activity (mortality in %) (Myzus persicae [2]): ≥ 80%

SMILES: COC(=O)CCNC(=S)N1CCOC1=NC1Cc2ccccc2C1 [1-22]
PhysData (logP^1) [1, 4]: 3.2
activity (mortality in %) (Myzus persicae [2]): ≥ 80%

SMILES: CCOC(=O)CC(C)NC(=S)N1CCOC1=NC1Cc2ccccc2C1 (centres unmarked) [1-23]
activity (mortality in %) (Phaedon cochleariae): ≥ 80%
PhysData (logP^1) [1, 4]: 4.0

SMILES: COC(=O)CCCNC(=S)N1CCOC1=NC1Cc2ccccc2C1 [1-24]
PhysData (logP^1) [1, 4]: 3.6

SMILES: COC(=O)C(NC(=S)N1CCOC1=NC1Cc2ccccc2C1)C(C)C (centres unmarked) [1-25]
PhysData (logP^1) [1, 4]: 4.4
activity (mortality in %) (Myzus persicae [2]): ≥ 80%

SMILES: CCOC(=O)C(C)NC(=S)N1CCOC1=NC1Cc2ccccc2C1 (centres unmarked) [1-26]
PhysData (logP^1) [1, 4]: 4.2
activity (mortality in %) (Myzus persicae [2]): ≥ 80%

SMILES: CCC(NC(=S)N1CCOC1=NC1Cc2ccccc2C1)C(=O)OC (centres unmarked) [1-27]
PhysData (logP^1) [1, 4]: 4.0
activity (mortality in %) (Myzus persicae [2]): ≥ 80%

SMILES: S=C(NCC1CCCO1)N1CCOC1=NC1Cc2ccccc2C1 (centres unmarked) [1-28]
chromatographic logP (physchem): 3.6
activity (mortality in %) (Myzus persicae [2]): ≥ 80%

chromatographic logP (physchem): 5.1
SMILES: FC(F)(F)C1CCC(NC(=S)N2CCOC2=NC2Cc3ccccc3C2)CC1 (centres unmarked) [1-29]

SMILES: CC(C)NC(=S)N1CCOC1=NC1Cc2ccccc2C1 [1-30]
PhysData (logP^1) [1, 4]: 4.0
activity (mortality in %) (Myzus persicae [2]): ≥ 80%

SMILES: S=C(NC1CC1)N1CCOC1=NC1Cc2ccccc2C1 [1-31]
PhysData (logP^1) [1, 4]: 3.5

SMILES: S=C(NC1CCCC1)N1CCOC1=NC1Cc2ccccc2C1 [1-32]
chromatographic logP (physchem): 4.74
activity (mortality in %) (Myzus persicae [2]): ≥ 80%

chromatographic logP (physchem): 4.7
SMILES: FC(F)(F)C1CCCC(NC(=S)N2CCOC2=NC2Cc3ccccc3C2)C1 (centres unmarked) [1-33]

SMILES: S=C(NCc1ccccc1)N1CCOC1=NC1Cc2ccccc2C1 [1-34]
PhysData (logP^1) [1, 4]: 5.2

SMILES: CC(NC(=S)N1CCOC1=NC1Cc2ccccc2C1)c1ccccc1 (centres unmarked) [1-35]
PhysData (logP^1) [1, 4]: 4.4

SMILES: S=C(NCc1ccc(Cl)cc1)N1CCOC1=NC1Cc2ccccc2C1 [1-36]
chromatographic logP (physchem): 4.9
activity (mortality in %) (Myzus persicae [2]): ≥ 80%

SMILES: S=C(NCc1cccc(Cl)c1)N1CCOC1=NC1Cc2ccccc2C1 [1-37]
chromatographic logP (physchem): 4.9
activity (mortality in %) (Myzus persicae [2]): ≥ 80%

chromatographic logP (physchem): 4.9
SMILES: S=C(NCc1ccccc1Cl)N1CCOC1=NC1Cc2ccccc2C1 [1-38]

SMILES: S=C(NCc1ccc2c(c1)OCO2)N1CCOC1=NC1Cc2ccccc2C1 [1-39]
chromatographic logP (physchem): 4.1
activity (mortality in %) (Myzus persicae [2]): ≥ 80%

SMILES: S=C(NCCc1ccccc1)N1CCOC1=NC1Cc2ccccc2C1 [1-40]
PhysData (logP^1) [1, 4]: 4.6

chromatographic logP (physchem): 5.1
SMILES: S=C(NCCc1ccc(Cl)cc1)N1CCOC1=NC1Cc2ccccc2C1 [1-41]

SMILES: S=C(NCc1cccnc1)N1CCOC1=NC1Cc2ccccc2C1 [1-42]
chromatographic logP (physchem): 2
activity (mortality in %) (Myzus persicae [2]): ≥ 80%

chromatographic logP (physchem): 5.3
SMILES: CC(NC(=S)N1CCOC1=NC1Cc2ccccc2C1)c1ccc(Cl)cc1 (centres unmarked) [1-43]

chromatographic logP (physchem): 5.2
SMILES: CC(NC(=S)N1CCOC1=NC1Cc2ccccc2C1)c1ccccc1Cl (centres unmarked) [1-44]

SMILES: CC(NC(=S)N1CCOC1=NC1Cc2ccccc2C1)c1cccc(Cl)c1 (centres unmarked) [1-45]
chromatographic logP (physchem): 5.3
activity (mortality in %) (Myzus persicae [2]): ≥ 80%

chromatographic logP (physchem): 4.8
SMILES: Cc1ccc(CNC(=S)N2CCOC2=NC2Cc3ccccc3C2)cc1 [1-46]

chromatographic logP (physchem): 4.4
SMILES: Fc1ccc(CNC(=S)N2CCOC2=NC2Cc3ccccc3C2)cc1 [1-47]

chromatographic logP (physchem): 3.7
SMILES: COc1ccc(CNC(=S)N2CCOC2=NC2Cc3ccccc3C2)cc1OC [1-48]

chromatographic logP (physchem): 5.7
SMILES: S=C(NCc1ccc(Cl)cc1Cl)N1CCOC1=NC1Cc2ccccc2C1 [1-49]

SMILES: S=C(Nc1ccccn1)N1CCOC1=NC1Cc2ccccc2C1 [1-50]
activity (mortality in %) (Phaedon cochleariae): ≥ 80%
chromatographic logP (physchem): 1.6
activity (mortality in %) (Myzus persicae [2]): ≥ 80%

SMILES: Fc1ccc2c(c1)CC(N=C1NCCO1)C2 (centres unmarked) [1-64]
PhysData (logP^1) [1, 4]: 0.73

chromatographic logP (physchem): 5.1
SMILES: S=C(NCCc1cccc(Cl)c1)N1CCOC1=NC1Cc2ccccc2C1 [1-120]

SMILES: c1ccc2c(c1)CC(NC1=NCCS1)C2 [2-1, 2-[2-(2,3-dihydro-1H-inden)-amino]-4,5-dihydrothiazole]
PhysData (logP^1) ([1]; Table I-2): 0.66

SMILES: CNC(=S)N1CCSC1=NC1Cc2ccccc2C1 [2-2]
PhysData (logP^1) ([1]; Table I-2): 4.05

SMILES: FC(F)(F)CNC(=S)N1CCSC1=NC1Cc2ccccc2C1 [2-6]
PhysData (logP^1) ([1]; Table I-2): 4.80
logP^1 [1]: 4.8

SMILES: COCCNC(=S)N1CCSC1=NC1Cc2ccccc2C1 [2-7]
PhysData (logP^1) ([1]; Table I-2): 4.11

SMILES: CCOC(=O)CNC(=S)N1CCSC1=NC1Cc2ccccc2C1 [2-8]
PhysData (logP^1) ([1]; Table I-2): 4.41

SMILES: c1ccc2c(c1)CC(NC1=NCCN1)C2 [3-1]
PhysData (logP (HCOOH)) ([1]; Table I-3): 0.52

SMILES: COCCNC(=S)N1CCNC1=NC1Cc2ccccc2C1 [3-7]
PhysData (logP (HCOOH)) ([1]; Table I-3): 1.46
logP^1 [1]: 1.46

SMILES: O=C(NCCCl)NC1Cc2ccccc2C1 [4-1]
PhysData (logP (HCOOH)) ([1]; Table 1-4): 1.92
activity (mortality in %) (Myzus persicae [2]): ≥ 80%
activity (mortality in %) (Myzus persicae [3]; application rate of 100 ppm): ≥ 80%
